Our source for the melting point values is a melting point compilation (Tetko et al.; mined from patent text by program, amines drawn as free bases though some values may be those of a salt).

In the case of `CCC(Nc1ccc(Br)cc1)n1nnc2ccccc21` (stereo not drawn), the melting point came to 132 °C.

`CNC(=O)c1cc(C#N)cc(C)c1NC(=O)c1cc(C(F)(F)F)nn1-c1ncccc1Cl` had a melting point of 214 to 216 °C.

For the compound `O=C(NCCO[N+](=O)[O-])c1csc(C(F)(F)F)n1`, the melting point fell in the range of 81 to 82 °C.

Consider `N#CCCCSc1nccc(N)n1`, for which the melting point was 99 to 100 °C.

As for `O=C(O)c1cc([N+](=O)[O-])ccc1OC(F)(F)F`, the melting point fell in the range of 134 to 135 °C.

The compound `O=C(NCc1ccccc1O)[C@@H]1CCCN(c2cccc3c2C(=O)N(Cc2ccncc2)C3=O)C1` displayed a melting point of 181 to 182 °C.

As to `Cn1cc(C(=O)O)c(=O)c2cc3cc(F)c(N4CCNC(c5ccccc5)C4)c(F)c3nc21` (racemic), the melting point was determined as 298 °C.

With `CC(C)c1ccc(-c2cnc(-c3cccc(C(=O)O)c3)s2)cc1`, the melting point lay in the range of 218 to 220 °C.

Consider `CS(=O)(=O)c1ccc(-c2cnn(Cc3ccc(O)cc3)c(=O)c2-c2ccc(F)cc2)cc1`, for which the melting point fell in the range of 225 to 226 °C.

`CCCCOc1ccc(C(=O)NC[C@@H](C(=O)NO)N2CCN(S(C)(=O)=O)CC2)cc1`: the melting point is 130 °C.

The compound `c1ccc(C(OC2CCN(CCCCNc3ccc4ncnn4n3)CC2)c2ccccc2)cc1` displayed a melting point of 102 to 104 °C.

Compound `O=C(O)C=Cc1ccc(O)c(Cl)c1` showed a melting point of 180 to 182 °C.

Take `CCOCc1nc2c(N)nc3ccccc3c2n1NC(C)C`: the melting point lay in the range of 162 to 164 °C.

In turn, `CCC(=O)NS(=O)(=O)c1ccc(C(=O)C=Cc2cc(-c3cc4ccccc4[nH]3)c(OC)cc2OC)cc1` yielded a melting point of 223 to 225 °C.

`Cc1ccc(-c2nnc(N3CCCCC3)nc2-c2ccc(C)cc2)cc1`: the melting point was 141 to 143 °C.

Turning to `CC=C1C(=O)N2C(C(=O)OCc3ccc([N+](=O)[O-])cc3)=C(SCCNC(=O)OCc3ccc([N+](=O)[O-])cc3)CC12` (stereo not drawn), the melting point lay in the range of 160 to 161 °C.

With `O=C1CCC(=C2CCC(C3CCCCC3)CC2)CC1` (stereo not drawn), the melting point was in the range of 81 to 81.5 °C.

Turning to `Cc1noc(C(=O)NC(C)(C)C)c1C(N)=O`, the melting point was 155 to 158 °C.

`Nc1c(Cl)ccc2c1NCCC2=O`: the melting point lay in the range of 105 to 109 °C.

Turning to `CN(C)CCCOc1ccc2c(c1)SCC(=O)N2`, the melting point fell in the range of 120 to 121 °C.

The compound `CC(C(=O)OC12CC3CC(CC(C3)C1)C2)c1ccc2nc(N)sc2c1` (stereo not drawn) registered a melting point of 151 to 153 °C.

Consider `OCC1=CC=C(COc2cc(C(F)(F)F)ccc2Cl)SS1`, for which the melting point is 94.2 to 96 °C.

In turn, `CC(=O)Oc1cccc2c1CC(=O)N2C` returned a melting point of 109 to 111 °C.

`COc1cc(/C=C/C=C/C(=O)NCCCN2CCC(c3c[nH]c4ccccc34)CC2)cc(OC)c1O` had a melting point of 176 to 179 °C.

Turning to `Cc1ccc(S(=O)(=O)n2c(-c3cn(C)c4ccc(-c5ccncc5)cc34)cc3cccnc32)cc1`, the melting point lay within 82 to 85 °C.

As to `Cc1c(CCc2ccc3[nH]c(N)nc3c2)ncn1C(c1ccccc1)(c1ccccc1)c1ccccc1`, the melting point fell in the range of 161 to 164 °C.

Take `COc1cc(COc2nn(-c3ccccc3)cc2C(C[N+](=O)[O-])C[N+](=O)[O-])ccc1OCc1nc(-c2ccco2)oc1C`: the melting point fell in the range of 126 to 127 °C.

Compound `C=Cc1ccc(S(=O)(=O)NS(=O)(=O)c2ccccc2)cc1` showed a melting point of 145 to 147 °C.

Turning to `COc1ccc(Cl)cc1C(=O)NCCc1ccc(CCCCCCCC(=O)O)cc1`, the melting point was in the range of 103 to 106 °C.

Compound `O=C(CNC1=Nc2cccc3cccc1c23)NCCCn1ccnc1` registered a melting point of 145 to 146 °C.

As for `O=C(Nc1ccc(C(=O)N2Cc3ccccc3Cc3ccccc32)cc1)c1ccccc1`, the melting point lay in the range of 219 to 221 °C.

`N#Cc1ccc(O)c(Cc2cc(F)cc(Cc3cc(C#N)ccc3O)c2O)c1` came in with a melting point of 222 °C.

Consider `CCCCCCC(=O)Oc1ccc(-c2ccc(C#N)cc2)cc1`, for which the melting point was in the range of 57.7 to 57.9 °C.

As usually defined, the melting point is the temperature, or range, at which the solid turns liquid.
